According to ChEMBL document CHEMBL1156232, “Non-classical antifolates. Part 2: synthesis, biological evaluation, and molecular modeling study of some new 2,6-substituted-quinazolin-4-ones” (Bioorg Med Chem, 2010):
Converted amounts (≈) assume the structure as drawn. The source made the active and inactive calls. The rule behind the calls is not given here.

Columns and labels:
Staphylococcus aureus [1] = test: Antibacterial activity against Staphylococcus aureus at 100 ug/disk after 24 hrs by disk diffusion method; assay type: functional
Bacillus subtilis [2] = test: Antibacterial activity against Bacillus subtilis at 200 ug/disk after 24 hrs by disk diffusion method; assay type: functional; conditions: for zone of inhibition at 200 µg/disc: read-out: DIZ
Bacillus subtilis [3] = test: Antibacterial activity against Bacillus subtilis at 100 ug/disk after 24 hrs by disk diffusion method; assay type: functional
Bacillus subtilis [4] = test: Antibacterial activity against Bacillus subtilis after 24 hrs by microdilution susceptibility method; assay type: functional
Dihydrofolate reductase [5] = molecular target: T1, Dihydrofolate reductase (Homo sapiens, UniProt P00374)
T1 sequence (P00374 whole entry): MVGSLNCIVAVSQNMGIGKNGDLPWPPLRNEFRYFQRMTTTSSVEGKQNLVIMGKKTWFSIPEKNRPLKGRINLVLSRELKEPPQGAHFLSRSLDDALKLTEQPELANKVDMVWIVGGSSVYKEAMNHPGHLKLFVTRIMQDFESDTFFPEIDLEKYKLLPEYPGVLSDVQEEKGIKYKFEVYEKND
Description: Inhibition of human DHFR after 2 mins

Staphylococcus aureus [6] = test: Antibacterial activity against Staphylococcus aureus after 24 hrs by microdilution susceptibility method; assay type: functional
Dihydrofolate reductase [7] = molecular target: T2, Dihydrofolate reductase (Bos taurus, UniProt P00376)
T2 sequence (P00376 whole entry): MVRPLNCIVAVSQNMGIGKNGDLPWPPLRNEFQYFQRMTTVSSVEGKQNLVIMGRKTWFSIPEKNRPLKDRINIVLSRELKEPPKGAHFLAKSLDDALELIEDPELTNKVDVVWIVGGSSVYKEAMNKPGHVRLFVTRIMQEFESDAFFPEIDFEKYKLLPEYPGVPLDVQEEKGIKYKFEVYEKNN
Description: Inhibition of bovine DHFR after 2 mins

Staphylococcus aureus [8] = test: Antibacterial activity against Staphylococcus aureus at 200 ug/disk after 24 hrs by disk diffusion method; assay type: functional; conditions: for zone of inhibition at 200 µg/disc: read-out: DIZ
Pseudomonas aeruginosa = test: Antibacterial activity against Pseudomonas aeruginosa at 200 ug/disk after 24 hrs by disk diffusion method; assay type: functional
Candida albicans [9] = test: Antifungal activity against Candida albicans at 200 ug/disk after 48 hrs by disk diffusion method; assay type: functional, organism-based
Micrococcus luteus [10] = test: Antibacterial activity against Micrococcus luteus at 200 ug/disk after 24 hrs by disk diffusion method; assay type: functional; conditions: for zone of inhibition at 200 µg/disc: Micrococcus luteus, 24 h, read-out: DIZ
Escherichia coli [11] = test: Antibacterial activity against Escherichia coli after 24 hrs by microdilution susceptibility method; assay type: functional
Escherichia coli [12] = test: Antibacterial activity against Escherichia coli at 200 ug/disk after 24 hrs by disk diffusion method; assay type: functional; conditions: for zone of inhibition at 200 µg/disc: read-out: DIZ
Candida albicans [13] = test: Antifungal activity against Candida albicans after 48 hrs by microdilution susceptibility method; assay type: functional, organism-based
Micrococcus luteus [14] = test: Antibacterial activity against Micrococcus luteus after 24 hrs by microdilution susceptibility method; assay type: functional
[15] = Antitumor activity against human ovarian cancer cells after 48 hrs by SRB assay; assay type: functional; conditions: Cancer cell lines
[16] = Antitumor activity against human leukemia cells after 48 hrs by SRB assay; assay type: functional; conditions: Leukemia cell
[17] = Antitumor activity against human non small cell lung cancer cells after 48 hrs by SRB assay; assay type: functional; conditions: Cancer cell lines
[18] = Antitumor activity against human CNS cancer cells after 48 hrs by SRB assay; assay type: functional; conditions: Cancer cell lines
MDA-MB-468 = test: Antitumor activity against human MDA-MB-468 cells after 48 hrs by SRB assay; assay type: functional; conditions: MDA-MB-468, 48 h
[19] = Antitumor activity against human colon cancer cells after 48 hrs by SRB assay; assay type: functional; conditions: Cancer cell lines
[20] = Antitumor activity against human renal cancer cells after 48 hrs by SRB assay; assay type: functional; conditions: Cancer cell lines
[21] = Antitumor activity against human breast cancer cells after 48 hrs by SRB assay; assay type: functional; conditions: Cancer cell lines
[22] = Antitumor activity against human prostate cancer cells after 48 hrs by SRB assay; assay type: functional; conditions: Cancer cell lines
[23] = Antitumor activity against human melanoma cells after 48 hrs by SRB assay; assay type: functional; conditions: Melanoma cell
OVCAR-4 = test: Antitumor activity against human OVCAR4 cells after 48 hrs by SRB assay; assay type: functional; conditions: OVCAR-4, 48 h
HT-29 = test: Antitumor activity against human HT-29 cells after 48 hrs by SRB assay; assay type: functional; conditions: HT-29, 48 h

**Q.** Which inhibition zone (IZ) (Staphylococcus aureus [1]) does the source give for GENTAMICIN here?
**A.** 21 mm

**Q.** What about the inhibition zone (IZ) (Bacillus subtilis [2]) of the same molecule?
**A.** 19 mm

**Q.** What about the inhibition zone (IZ) (Bacillus subtilis [3]) of the same molecule?
**A.** 19 mm

**Q.** What does the source list for `CC(=O)NS(=O)(=O)c1ccc(N)cc1` [SULFACETAMIDE]?
**A.** zone of inhibition at 100 µg/disc (Staphylococcus aureus [1]; read-out: DIZ): 28 mm; MIC (Bacillus subtilis [4]): 2 µg/mL (≈ 9.34 µM); zone of inhibition at 200 µg/disc (Bacillus subtilis [2]): 25 mm; IC50 (Dihydrofolate reductase [5]): 18000 nM; zone of inhibition at 100 µg/disc (Bacillus subtilis [3]; read-out: DIZ): 25 mm; MIC (Staphylococcus aureus [6]): 1 µg/mL (≈ 4.67 µM); IC50 (Dihydrofolate reductase [7]): 22000 nM

**Q.** For `Nc1ccc2ncn(Cc3ccccc3)c(=O)c2c1`, which zone of inhibition at 200 µg/disc (Staphylococcus aureus [8]) is on record?
**A.** 24 mm

**Q.** And the MIC (Bacillus subtilis [4])?
**A.** 2 µg/mL (≈ 7.96 µM)

**Q.** What about the “diameter of the inhibition zone (DIZ)” value (Pseudomonas aeruginosa) of the same molecule?
**A.** inactive

**Q.** And the Activity (Candida albicans [9])?
**A.** inactive

**Q.** And the zone of inhibition at 200 µg/disc (Bacillus subtilis [2])?
**A.** 28 mm

**Q.** And the MIC (Staphylococcus aureus [6])?
**A.** 2 µg/mL (≈ 7.96 µM)

**Q.** And the IC50 (Dihydrofolate reductase [7])?
**A.** 40000 nM

**Q.** And the zone of inhibition at 200 µg/disc (Micrococcus luteus [10])?
**A.** 20 mm

**Q.** What about the MIC (Escherichia coli [11]) of the same molecule?
**A.** 4 µg/mL (≈ 15.9 µM)

**Q.** What about the zone of inhibition at 200 µg/disc (Escherichia coli [12]) of the same molecule?
**A.** 22 mm

**Q.** And the Activity (Candida albicans [13])?
**A.** inactive

**Q.** And the MIC (Micrococcus luteus [14])?
**A.** 4 µg/mL (≈ 15.9 µM)

**Q.** Which results are given for `O=c1c2cc([N+](=O)[O-])ccc2nc(S)n1Cc1ccccc1`?
**A.** zone of inhibition at 200 µg/disc (Staphylococcus aureus [8]): 20 mm; MIC (Bacillus subtilis [4]): 8 µg/mL (≈ 25.5 µM); diameter of the inhibition zone (DIZ) (Pseudomonas aeruginosa): inactive; Activity (Candida albicans [9]): inactive; zone of inhibition at 200 µg/disc (Bacillus subtilis [2]): 18 mm; MIC (Staphylococcus aureus [6]): 4 µg/mL (≈ 12.8 µM); IC50 (Dihydrofolate reductase [7]): 15000 nM; zone of inhibition at 200 µg/disc (Micrococcus luteus [10]): 16 mm; diameter of the inhibition zone (DIZ) (Escherichia coli [12]): inactive; Activity (Candida albicans [13]): inactive; MIC (Micrococcus luteus [14]): 16 µg/mL (≈ 51.1 µM)

**Q.** What does the source list for `CSc1nc2ccc(N(C/C=C/c3ccccc3)C/C=C/c3ccccc3)cc2c(=O)n1Cc1ccccc1`?
**A.** diameter of the inhibition zone (DIZ) (Staphylococcus aureus [8]): inactive; MIC (Bacillus subtilis [4]): 8 µg/mL (≈ 15.1 µM); diameter of the inhibition zone (DIZ) (Pseudomonas aeruginosa): inactive; Activity (Candida albicans [9]): inactive; zone of inhibition at 200 µg/disc (Bacillus subtilis [2]): 18 mm; IC50 (Dihydrofolate reductase [5]): 800 nM; IC50 (Dihydrofolate reductase [7]): 600 nM; diameter of the inhibition zone (DIZ) (Micrococcus luteus [10]): inactive; MIC (Escherichia coli [11]): 16 µg/mL (≈ 30.2 µM); zone of inhibition at 200 µg/disc (Escherichia coli [12]): 16 mm; Activity (Candida albicans [13]): inactive

**Q.** With `CSc1nc2ccc(NC(=O)/C=C/c3ccccc3)cc2c(=O)n1Cc1ccccc1` as the molecule, how does the “diameter of the inhibition zone (DIZ)” value (Staphylococcus aureus [8]) read?
**A.** inactive

**Q.** And the GI50 [15]?
**A.** 1100 nM

**Q.** What about the TGI [15] of the same molecule?
**A.** > 100000 nM

**Q.** And the “diameter of the inhibition zone (DIZ)” value (Pseudomonas aeruginosa)?
**A.** inactive

**Q.** And the GI50 [16]?
**A.** 51600 nM

**Q.** And the TGI [16]?
**A.** > 100000 nM

**Q.** What about the Activity (Candida albicans [9]) of the same molecule?
**A.** inactive

**Q.** And the “diameter of the inhibition zone (DIZ)” value (Bacillus subtilis [2])?
**A.** inactive

**Q.** And the GI50 [17]?
**A.** 1700 nM

**Q.** And the TGI [17]?
**A.** 80900 nM

**Q.** What about the IC50 (Dihydrofolate reductase [5]) of the same molecule?
**A.** 1000 nM

**Q.** And the GI50 [18]?
**A.** 1900 nM

**Q.** And the TGI [18]?
**A.** 68400 nM

**Q.** What about the GI50 (MDA-MB-468) of the same molecule?
**A.** 2200 nM

**Q.** What about the GI50 [19] of the same molecule?
**A.** 34500 nM

**Q.** And the TGI [19]?
**A.** > 100000 nM

**Q.** What about the IC50 (Dihydrofolate reductase [7]) of the same molecule?
**A.** 600 nM

**Q.** And the “diameter of the inhibition zone (DIZ)” value (Micrococcus luteus [10])?
**A.** inactive

**Q.** And the GI50 [20]?
**A.** 2900 nM

**Q.** And the TGI [20]?
**A.** > 100000 nM

**Q.** And the GI50 [21]?
**A.** 3000 nM

**Q.** And the TGI [21]?
**A.** > 100000 nM

**Q.** And the “diameter of the inhibition zone (DIZ)” value (Escherichia coli [12])?
**A.** inactive

**Q.** What about the Activity (Candida albicans [13]) of the same molecule?
**A.** inactive

**Q.** And the GI50 [22]?
**A.** 1600 nM

**Q.** What about the TGI [22] of the same molecule?
**A.** > 100000 nM

**Q.** What about the GI50 [23] of the same molecule?
**A.** 2400 nM

**Q.** What about the TGI [23] of the same molecule?
**A.** 26900 nM

**Q.** What does the source list for `O=C(/C=C/c1ccccc1)Nc1ccc2nc(SC/C=C/c3ccccc3)n(Cc3ccccc3)c(=O)c2c1`?
**A.** GI50 [15]: 3300 nM; TGI [15]: > 100000 nM; GI50 [16]: > 100000 nM; TGI [16]: > 100000 nM; Activity (Candida albicans [9]): inactive; GI50 (OVCAR-4): 400 nM; GI50 [17]: 2200 nM; TGI [17]: 76400 nM; IC50 (Dihydrofolate reductase [5]): 500 nM; GI50 [18]: 3000 nM; TGI [18]: 37000 nM; GI50 [19]: 1900 nM; TGI [19]: > 100000 nM; IC50 (Dihydrofolate reductase [7]): 900 nM; GI50 [20]: 2600 nM; TGI [20]: 68000 nM; GI50 [21]: 2500 nM; TGI [21]: 68600 nM; GI50 (HT-29): 600 nM; Activity (Candida albicans [13]): inactive; GI50 [22]: > 100000 nM; TGI [22]: > 100000 nM; GI50 [23]: 2200 nM; TGI [23]: 86900 nM
